Biological target: MASP-2 CCP2-SP (Homo sapiens (Human), UniProt O00187)
Experiment: MASP-2 co-crystallization, X-ray crystallography and structure analysis (H-bonds, van der Waals contacts);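 on Ligand-pharmacophore element distance, pharmacophore element C2: distance from averaged pharmacophore element to bound ligand; missing value means element absent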;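 on Ligand-pharmacophore element distance, pharmacophore element C3: distance from averaged pharmacophore element to bound ligand; missing value means element absent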;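 on Ligand-pharmacophore element distance, pharmacophore element C4: distance from averaged pharmacophore element to bound ligand; missing value means element absent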;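 on Ligand-pharmacophore element distance, pharmacophore element C5: distance from averaged pharmacophore element to bound ligand; missing value means element absent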
Set-up: van der Waals contact distance, MASP-2 HIS 483 atom CD2 / van der Waals contact distance, MASP-2 HIS 483 atom NE2 / van der Waals contact distance, SER 654 C to compound atom / van der Waals contact distance, SER 654 O to compound atom / van der Waals contact distance, TRP 655 C to compound atom / van der Waals contact distance, MASP-2 GLY 528 atom CA / van der Waals contact distance TRP 655 atom CZ3 / van der Waals contact distance TRP 655 atom N / van der Waals contact distance TRP 655 atom CE3 / van der Waals contact distance GLY 656 atom C / van der Waals contact distance GLY 656 atom CA / van der Waals contact distance GLY 656 atom O / van der Waals contact distance, MASP-2 TYR 607 atom CD1 / van der Waals contact distance, MASP-2 PRO 606 atom O / d(C3,CA1) / d(CA1,N1)2 / d(H4,O1) / d(H4,O2) / d(O1,O2) / d(CA1,O2) / d(CA6,O1) / d(CA6,O2) / d(CA1,C5) / d(O2,H3) / d(N2,C2) / d(CA5,N2) / d(N2,C4) / d(N2,C6) / d(N2,CA3) / d(N2,O3) / d(O4,H2): unit not given beside the values
Details: for Ligand-pharmacophore element distance, pharmacophore element C2 / Ligand-pharmacophore element distance, pharmacophore element C3 / Ligand-pharmacophore element distance, pharmacophore element C4 / Ligand-pharmacophore element distance, pharmacophore element C5 / Ligand-pharmacophore element distance, pharmacophore element C6 / Ligand-pharmacophore element distance, pharmacophore element C7 / Ligand-pharmacophore element distance, pharmacophore element CA1 / Ligand-pharmacophore element distance, pharmacophore element CA2 / Ligand-pharmacophore element distance, pharmacophore element CA3 / Ligand-pharmacophore element distance, pharmacophore element CA4 / Ligand-pharmacophore element distance, pharmacophore element CA5 / Ligand-pharmacophore element distance, pharmacophore element CA6: Table A4-1
How it was run: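 Human MASP-2 CCP2-SP, untagged or 6His-tagged, was expressed in E. coli and crystallized. Crystals were soaked with inhibitor in crystallization solution, flash-cooled in liquid nitrogen, and diffracted with synchrotron X-rays (wavelength 1.0). Structures were solved by molecular replacement from 1Q3X and partially refined.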

[1] = Table A5-1 pharmacophore: distance between elements, S2/S1 region
[2] = Table A5-2 pharmacophore distance, S3/S4 region
[3] = Table A7-1, between pharmacophore elements of the bound compound
[4] = Table A7-2, between pharmacophore elements of the bound compound
[5] = Table A8-6, nearest protein atom in cell to the left

Chain of MASP-2 CCP2-SP (O00187 445-686): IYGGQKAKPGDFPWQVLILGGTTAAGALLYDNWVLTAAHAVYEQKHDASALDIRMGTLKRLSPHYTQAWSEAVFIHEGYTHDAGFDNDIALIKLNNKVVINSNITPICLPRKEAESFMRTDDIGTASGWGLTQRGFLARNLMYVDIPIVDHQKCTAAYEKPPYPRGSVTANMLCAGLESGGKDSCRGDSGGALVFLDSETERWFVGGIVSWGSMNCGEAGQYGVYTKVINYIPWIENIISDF
Chain of MASP-2 CCP2-SP (O00187 364-432 partner): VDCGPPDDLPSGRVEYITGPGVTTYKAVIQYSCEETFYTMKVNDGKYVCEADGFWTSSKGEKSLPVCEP

Structure (SMILES): CC(=O)Nc1ccc(CCNC(CCc2ccccc2)C(=O)NC(C)C(=O)NCc2ccc(C(=N)N)cc2)cc1.Cl.Cl (stereo not drawn) [1345_1]
- Ligand-pharmacophore element distance, pharmacophore element C2: 0
- Ligand-pharmacophore element distance, pharmacophore element C3: 0
- Ligand-pharmacophore element distance, pharmacophore element C4: 0
- Ligand-pharmacophore element distance, pharmacophore element C5: 0
- Ligand-pharmacophore element distance, pharmacophore element C6: 0
- Ligand-pharmacophore element distance, pharmacophore element C7: 0
- Ligand-pharmacophore element distance, pharmacophore element CA1: 0.51
- Ligand-pharmacophore element distance, pharmacophore element CA2: 1.2
- Ligand-pharmacophore element distance, pharmacophore element CA3: 1.44
- Ligand-pharmacophore element distance, pharmacophore element CA4: 0
- Ligand-pharmacophore element distance, pharmacophore element CA5: 0
- Ligand-pharmacophore element distance, pharmacophore element CA6: 0
- d(CA1,O1) [1]: 4.52
- d(CA1,O2) [1]: 4.49
- d(H4,O1) [1]: 4.08
- d(H4,O2) [1]: 3.57
- d(O1,O2) [1]: 3.48
- d(N2,CA2) [2]: 6.14
- d(N2,CA3) [2]: 5.17
- d(N2,O3) [2]: 8.75
- d(O2,H3) [2]: 5.98
- d(O2,N2) [2]: 2.90
- a(CA1, O1, O2) (Table A6-1 pharmacophore angle): 112.39
- a(O1, O2, H4) (Table A6-1 pharmacophore angle): 126.38
- a(O1, O2, H3) (Table A6-2 pharmacophore angle): 149.79
- a(O1, O2, N2) (Table A6-2 pharmacophore angle): 134.33
- a(O2, N2, CA2) (Table A6-2 pharmacophore angle): 153.15
- a(O2, N2, CA3) (Table A6-2 pharmacophore angle): 153.91
- a(O2, N2, O3) (Table A6-2 pharmacophore angle): 163.54
- Pharmacophore torsion angle a(H4, O1, O2, H3) [3]: 39.71
- Pharmacophore torsion angle a(H4, O1, O2, N2) [3]: 114.36
- Pharmacophore torsion angle a(O1, H4, O2, CA1) [3]: −62.84
- Pharmacophore torsion angle a(O1, O2, N2, CA2) [4]: 138.94
- Pharmacophore torsion angle a(O1, O2, N2, CA3) [4]: −27.29
- Pharmacophore torsion angle a(O1, O2, N2, O3) [4]: −11.99

Structure (SMILES): N=C(N)c1ccc(CNC(=O)[C@@H]2CCN2C(=O)[C@H]2Cc3ccccc3CN2)cc1 [compound 1034]
- H-bond distance to MASP-2 ASP 627 atom OD1 (Table A1 (H-Bonds), ASP 627 OD1): 2.9
- H-bond distance to MASP-2 GLN 665 atom OE1 (Table A1 (H-Bonds), GLN 665 OE1): 3.26
- H-bond distance to MASP-2 GLN 665 atom OE1 (second bond) (Table A1 (H-Bonds), GLN 665 OE1, second column): 2.8
- H-bond distance to MASP-2 GLY 656 atom N (Table A1 (H-Bonds), GLY 656 N): 2.91
- H-bond distance to MASP-2 SER 628 atom O (Table A1 (H-Bonds), SER 628 O): 2.91
- H-bond distance to MASP-2 SER 654 atom O (Table A1 (H-Bonds), SER 654 O): 2.99
- H-bond distance to MASP-2 SER 657 atom O (Table A1 (H-Bonds), SER 657 O): 2.75
- van der Waals contact distance, MASP-2 PRO 606 atom CG (Table A2-4): 3.71
- van der Waals contact distance, MASP-2 amino acid atom to compound atom (Table A2-10, ARG 630 NH2, GLY 631, ASP 632, SER 633): 3.11
- van der Waals contact distance, SER 654 C to compound atom (Table A2-11): 3.83
- van der Waals contact distance, TRP 655 CA to compound atom (Table A2-12): 3.42
- van der Waals contact distance TRP 655 atom O (Table A2-13, MASP-2 TRP 655 O): 3.77
- van der Waals contact distance SER 657 atom C (Table A2-14, MASP-2 SER 657 C, columns c12-c13 (inferred)): 3.51
- Ligand-pharmacophore element distance, pharmacophore element C2: 2.4
- Ligand-pharmacophore element distance, pharmacophore element C3: 0
- Ligand-pharmacophore element distance, pharmacophore element C4: 0
- Ligand-pharmacophore element distance, pharmacophore element C5: 0
- Ligand-pharmacophore element distance, pharmacophore element C6: 0
- Ligand-pharmacophore element distance, pharmacophore element C7: 0
- Ligand-pharmacophore element distance, pharmacophore element CA1: 0.28
- Ligand-pharmacophore element distance, pharmacophore element CA2: 0
- Ligand-pharmacophore element distance, pharmacophore element CA3: 0
- Ligand-pharmacophore element distance, pharmacophore element CA4: 0
- Ligand-pharmacophore element distance, pharmacophore element CA5: 0.98
- Ligand-pharmacophore element distance, pharmacophore element CA6: 0
- Ligand-pharmacophore element distance, pharmacophore element H1 (Table A4-2, element H1): 0
- Ligand-pharmacophore element distance, pharmacophore element H2 (Table A4-2, element H2): 0
- Ligand-pharmacophore element distance, pharmacophore element H3 (Table A4-2, element H3): 1.08
- Ligand-pharmacophore element distance, pharmacophore element H4 (Table A4-2, element H4): 3.56
- Ligand-pharmacophore element distance, pharmacophore element N1 (Table A4-2, element N1): 1.87
- Ligand-pharmacophore element distance, pharmacophore element N2 (Table A4-2, element N2): 0.86
- Ligand-pharmacophore element distance, pharmacophore element O1 (Table A4-2, element O1): 0.39
- Ligand-pharmacophore element distance, pharmacophore element O2 (Table A4-2, element O2): 0.49
- Ligand-pharmacophore element distance, pharmacophore element O3 (Table A4-2, element O3): 0
- Ligand-pharmacophore element distance, pharmacophore element O4 (Table A4-2, element O4): 0
- d(CA1,N1) [1]: 3.64
- d(CA1,O1) [1]: 4.35
- d(CA1,O2) [1]: 4.19
- d(H4,O1) [1]: 4.86
- d(H4,O2) [1]: 4.31
- d(O1,O2) [1]: 3.48
- d(CA5,N2) [2]: 3.72
- d(N2,C2) [2]: 2.26
- d(O2,H3) [2]: 2.74
- d(O2,N2) [2]: 3.03
- a(CA1, O1, O2) (Table A6-1 pharmacophore angle): 111.64
- a(O1, O2, H4) (Table A6-1 pharmacophore angle): 135.95
- A(N1, CA1, O1) a) (Table A6-1 pharmacophore angle, all compounds with protonatable center N1 except Methyl-amino-pyridine): 160.69
- a(O1, O2, H3) (Table A6-2 pharmacophore angle): 135.88
- a(O1, O2, N2) (Table A6-2 pharmacophore angle): 137.69
- a(O2, N2, C2) (Table A6-2 pharmacophore angle): 100.68
- Pharmacophore torsion angle a(H4, O1, O2, H3) [3]: 93.33
- Pharmacophore torsion angle a(H4, O1, O2, N2) [3]: 142.83
- Pharmacophore torsion angle a(N1, CA1, O2, H4) [3]: −127.27
- Pharmacophore torsion angle a(O1, H4, O2, CA1) [3]: −61.32
- Pharmacophore torsion angle a(O1, O2, N2, C2) [3]: 68.39
- Pharmacophore torsion angle a(O1, O2, N2, CA5) [4]: 137.68
- Pharmacophore protein distance to MET_658 (first MET_658 column) (Table A8-6, 6th residue column, nearest protein atom in cell to the left): 2.86
- Pharmacophore protein distance to MET_658 (second MET_658 column) (Table A8-6, 9th residue column, nearest protein atom in cell to the left): 3.46
- Pharmacophore protein distance to GLY_528 [5]: 3.79
- Pharmacophore protein distance to PHE_529 [5]: 3.09
- Pharmacophore protein distance to PRO_608 [5]: 2.97
- Pharmacophore protein distance to SER_611 [5]: 3.32
- Pharmacophore protein distance to TRP_655 (Table A8-6, pharmacophore elements C6, CA3, O3, H1, nearest protein atom in cell to the left): 3.27

— patent US12195427B2, “MASP-2 inhibitors and methods of use” (priority 2018, dated 2025)
